The target in the experiment is T1, Human HDAC10 (Homo sapiens, UniProt Q969S8).
T1 construct: Amino acids 1-631 with Nterminal GST tag, MW=96 kDa; GST (N); purchased BioMol SE-559; host or cells: Sf9 cells, baculovirus
T1 sequence (Q969S8 1-631): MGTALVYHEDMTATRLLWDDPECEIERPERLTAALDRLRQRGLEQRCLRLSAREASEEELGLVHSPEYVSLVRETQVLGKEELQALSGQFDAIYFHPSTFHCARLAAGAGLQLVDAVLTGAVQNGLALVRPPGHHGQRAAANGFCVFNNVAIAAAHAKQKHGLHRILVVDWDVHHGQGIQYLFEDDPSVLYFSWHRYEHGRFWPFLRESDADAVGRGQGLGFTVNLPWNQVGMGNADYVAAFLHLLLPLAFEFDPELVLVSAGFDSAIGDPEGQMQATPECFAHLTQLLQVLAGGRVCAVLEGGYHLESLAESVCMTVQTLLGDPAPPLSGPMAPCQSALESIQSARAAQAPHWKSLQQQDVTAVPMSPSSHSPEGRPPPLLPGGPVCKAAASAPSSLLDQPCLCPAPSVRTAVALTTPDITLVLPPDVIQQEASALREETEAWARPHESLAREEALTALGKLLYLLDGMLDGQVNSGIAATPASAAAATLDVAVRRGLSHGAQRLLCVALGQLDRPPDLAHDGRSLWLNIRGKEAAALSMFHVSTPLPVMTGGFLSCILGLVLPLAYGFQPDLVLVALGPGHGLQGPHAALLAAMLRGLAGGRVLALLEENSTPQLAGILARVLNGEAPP
Kind of experiment: In vitro HDAC10 inhibition, fluorogenic peptide assay. It is filed as biochemical. The note with it: for IC50: read-out: IC50 (nM) of enzyme activity HDAC10. The procedure: All HDAC assays were performed using acetylated AMC-labeled peptide substrate: • Substrate for isoforms HDAC1, 2, 3, 4, 5, 6, 7, 9, 10, 11 and HeLa nuclear extract assays: Acetylated fluorogenic peptide from p53 residues 379-382 (RHKKAc) (BioMol. Cat. # KI-104). • Substrate for HDAC8 assays: Acetylated fluorogenic peptide from p53 residues 379-382 (RHKAcKAc) (BioMol. Cat. # KI-178).
Enzymes: • HDAC1 assay: 75 nM Human HDAC1 (GenBank Accession No. NM_004964): Full length with C-terminal GST tag, MW=79.9 kDa, expressed by baculovirus expression system in Sf9 cells (BioMol. Cat. # SE-456). • HDAC2 assay: 5 nM Human HDAC2 (GenBank Accession No. Q92769): Full length with C-terminal His tag, MW=60 kDa, expressed by baculovirus expression system in Sf9 cells (BioMol. Cat. # SE-500). • HDAC3 assay: 2.3 nM Human HDAC3/NcoR2 (GenBank Accession No. NM_003883 for HDAC3, GenBank Accession No.NM_006312 for NcoR2): Complex of human HDAC3, full length with C-terminal His tag, MW=49.7 kDa, and human NCOR2, N-terminal GST tag, MW=39 kDa, co-expressed in baculovirus expression system (BioMol. Cat. # SE-507). • HDAC4 assay: 266 nM Human HDAC4 (GenBank Accession No. NM_006037): Amino acids 627-1085 with N-terminal GST tag, MW=75.2 kDa, expressed in baculovirus expression system (BioMol, Hamburg, Germany). • HDAC5 assay: 588 nM Human HDAC5 (GenBank Accession No. NM_001015053): Full length with Nterminal GST tag, MW=150 kDa, expressed by baculovirus expression system in Sf9 cells (BioMol, Hamburg, Germany). • HDAC6 assay: 13 nM Human HDAC6 (GenBank Accession No. BC069243): Full length with N-terminal GST tag, MW=159 kDa, expressed by baculovirus expression system in Sf9 cells (BioMol. Cat. # SE-508). • HDAC7 assay: 962 nM Human HDAC7 (GenBank Accession No. AY302468): Amino acids 518-end with N-terminal GST tag, MW=78 kDa, expressed in baculovirus expression system (BioMol, Hamburg, Germany). • HDAC8 assay: 119 nM Human HDAC8 (GenBank Accession No. NM018486): Full length, MW=42 kDa, expressed in an E. coli expression system (BioMol. […]
The reactions were carried out in a 96-well microplate for fluorometry in a 50 μl reaction volume. […] The reaction was allowed to develop for 45 minutes at 30° C. with 5% CO2; then the fluorescent signal was measured with an excitation wavelength at 360 nm and an emission wavelength at 460 nm in a microplate-reading fluorometer (GeminiXS; Molecular Devices, Sunnyvale, Calif.). […] IC50 was calculated by fitting the experimental data to a dose-response curve. […]

As to `O=C(CCCCCNC(=O)c1[nH]c(-c2ccc(O)cc2)cc1-c1ccoc1)NO` [Example 5, 3-(3-furyl)-N-(5-(hydroxycarbamoyl)pentyl)-5-(4-hydroxy-phenyl)-1H-pyrrole-2-carboxamide], the half-maximal inhibitory concentration (IC50) is 14 nM.
In the case of `COc1ccc(-c2cc(-c3ccccc3)[nH]c2C(=O)NCCCCCC(=O)NO)cc1` [Compound A, N-[6-(hydroxyamino)-6-oxohexyl]-3-(4-methoxyphenyl)-5-phenyl-1H-pyrrole-2-carboxamide, reference compound], the IC50 stood at 346 nM. Moreover, for the setting “IC50 HDAC10/IC50 HDAC6”, the “Selectivity against HDAC6 (IC50 HDACx/IC50 HDAC6) HDAC10” value turned out to be 17.3.
Regarding `O=C(CCCCCNC(=O)c1[nH]c(-c2ccc(O)cc2)cc1-c1ccsc1)NO` [Example 6, N-(5-(hydroxycarbamoyl)pentyl)-5-(4-hydroxyphenyl)-3-(3-thienyl)-1H-pyrrole-2-carboxamide], the concentration for half-maximal inhibition (IC50) worked out at 47 nM.

The term IC50 denotes the midpoint of a concentration-inhibition curve.

(Values after patent US20150038545A1, “HYDROXYPHENYL PYRROLE COMPOUNDS CONTAINING AN HYDROXAMIC ACID AS HDAC INHIBITORS AND MEDICINAL APPLICATIONS THEREOF” (UNIVERSIDAD DEL PAÍS VASCO, priority 2011, published 2015).)
